Measured values taken from patent publication US9394311B2, “Triazolo compounds as PDE10 inhibitors” (Hoffmann-La Roche Inc., priority 2012, dated 2016).

Each compound was assayed against human PDE10A (Homo sapiens (Human), UniProt Q9Y233) (assay: human PDE10A full length Scintillation Proximity Assay (SPA)). Conditions: PDE10A full length enzyme, 50 nM cGMP / [3H]-cGMP substrate, 20 minutes at room temperature.
Assay type: biochemical
Method: The following test was carried out in order to determine the activity of the compounds of the present invention. PDE10 activity of the compounds of the present invention was determined using a Scintillation Proximity Assay (SPA)-based method similar to the one previously described (Fawcett, L. et al., Proc Natl Acad Sci USA (2000) 97(7):3702-3707).
The human PDE10A full length assay was performed in 96-well micro titer plates. The reaction mixture of 50 μl contained 20 mM HEPES pH=7.5/10 mM MgCl2/0.05 mg/ml BSA (Sigma cat. # A-7906), 50 nM cGMP (Sigma, cat. # G6129) and 50 nM [3H]-cGMP (GE Healthcare, cat. # TRK392 S.A. 13.2 Ci/mmol), 3.75 ng/well PDE10A enzyme (Enzo Life Science, Lausen, Switzerland cat # SE-534) with or without a specific test compound. A range of concentrations of the potential inhibitor was used to generate data for calculating the concentration of inhibitor resulting in 50% of the effect (e.g. IC50, the concentration of the competitor inhibiting PDE10A activity by 50%). Non-specific activity was tested without the enzyme. The reaction was initiated by the addition of the substrate solution (cGMP and [3H]-cGMP) and allowed to progress for 20 minutes at room temperature. The reaction was terminated by adding 25 μl of YSi-SPA scintillation beads (GE Healthcare, cat. # RPNQ0150) in 18 mM zinc sulphate solution (stop reagent). After 1 h under shaking, the plate was centrifuged one minute at 170 g to allow beads to settle. Afterwards, radioactive counts were measured on a Perkin Elmer Top-Count Scintillation plate reader.

human PDE10A, sequence (Q9Y233 other isoform, or with tags, fused parts or gaps): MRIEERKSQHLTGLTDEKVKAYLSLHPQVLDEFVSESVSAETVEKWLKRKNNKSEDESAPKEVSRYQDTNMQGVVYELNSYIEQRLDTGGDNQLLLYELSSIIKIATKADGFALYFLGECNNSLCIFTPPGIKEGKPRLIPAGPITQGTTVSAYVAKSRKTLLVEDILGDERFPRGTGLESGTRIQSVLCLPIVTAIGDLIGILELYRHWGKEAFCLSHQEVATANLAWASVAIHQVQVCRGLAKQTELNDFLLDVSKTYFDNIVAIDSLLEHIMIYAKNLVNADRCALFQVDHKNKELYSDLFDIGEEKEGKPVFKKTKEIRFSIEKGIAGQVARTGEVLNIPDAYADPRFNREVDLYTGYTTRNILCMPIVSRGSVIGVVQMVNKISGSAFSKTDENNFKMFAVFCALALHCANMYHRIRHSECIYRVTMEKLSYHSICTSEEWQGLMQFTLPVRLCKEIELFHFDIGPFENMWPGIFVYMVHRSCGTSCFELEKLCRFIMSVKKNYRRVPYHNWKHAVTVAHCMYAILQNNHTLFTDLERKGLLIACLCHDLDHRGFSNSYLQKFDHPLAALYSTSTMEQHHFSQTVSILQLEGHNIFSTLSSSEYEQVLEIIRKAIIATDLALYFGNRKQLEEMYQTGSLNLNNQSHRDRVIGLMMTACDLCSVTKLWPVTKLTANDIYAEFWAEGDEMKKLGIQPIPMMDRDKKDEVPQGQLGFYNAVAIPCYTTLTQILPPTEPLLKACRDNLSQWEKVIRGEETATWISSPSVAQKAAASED

IC50	Structure (SMILES)
62.7 nM	Cn1nc(N2CCCC2)nc1CCc1nc2ccc(Cl)cn2n1 [Example 26, 6-Chloro-2-(2-(1-methyl-3-(pyrrolidin-1-yl)-1H-1,2,4-triazol-5-yl)ethyl)-[1,2,4]triazolo[1,5-a]pyridine]
34.2 nM	Cc1ncc(C)n2nc(CCc3nc(N4CCC[C@@H]4C(F)(F)F)nn3C)nc12 [Example 114, 5,8-Dimethyl-2-{2-[2-methyl-5-((R)-2-trifluoromethyl-pyrrolidin-1-yl)-2H-[1,2,4]triazol-3-yl]-ethyl}-[1,2,4]triazolo[1,5-a]pyrazine]
10.7 nM	Cc1ncc(C)n2nc(CCc3nc(N4CC[C@@H](F)C4)nn3C)nc12 [Example 96, 2-{2-[5-((R)-3-Fluoro-pyrrolidin-1-yl)-2-methyl-2H-[1,2,4]triazol-3-yl]-ethyl}-5,8-dimethyl-[1,2,4]triazolo[1,5-a]pyrazine]
131 nM	Cc1ncc(C)n2nc(CCc3nc(N4CCC(O)C4)nn3C)nc12 (centres unmarked) [Example 104, 1-{5-[2-(5,8-Dimethyl-[1,2,4]triazolo[1,5-a]pyrazin-2-yl)-ethyl]-1-methyl-1H-[1,2,4]triazol-3-yl}-pyrrolidin-3-ol]
1.4 nM	Cc1ncc(C)n2nc(CCc3nc(N4CCC4)nn3C)nc12 [Example 10, 2-[2-(5-Azetidin-1-yl-2-methyl-2H-[1,2,4]triazol-3-yl)-ethyl]-5,8-dimethyl-[1,2,4]triazolo[1,5-a]pyrazine]
57.6 nM	Cc1ncc(C)n2nc(CCc3nc(N4CCC[C@H]4C)nn3C)nc12 [Example 101, 5,8-Dimethyl-2-{2-[2-methyl-5-((R)-2-methyl-pyrrolidin-1-yl)-2H-[1,2,4]triazol-3-yl]-ethyl}-[1,2,4]triazolo[1,5-a]pyrazine]
1.22 nM	Cc1c(Br)cc(Cl)c2nc(CCc3nc(N4CCCC4)nn3C)nn12 [Example 72, 6-Bromo-8-chloro-5-methyl-2-(2-(1-methyl-3-(pyrrolidin-1-yl)-1H-1,2,4-triazol-5-yl)ethyl)-[1,2,4]triazolo[1,5-a]pyridine]
6.69 nM	Cc1ncc(C)n2nc(CCc3nc(N4CCCC4)n(CC4CC4)n3)nc12 [Example 117b, 2-[2-(1-Cyclopropylmethyl-5-pyrrolidin-1-yl-1H-[1,2,4]triazol-3-yl)-ethyl]-5,8-dimethyl-[1,2,4]triazolo[1,5-a]pyrazine]
27.7 nM	Cc1ncc(C)n2nc(/C=C/c3nc(N4CCCC4)nn3C)nc12 [Example 13, 5,8-Dimethyl-2-[2-(2-methyl-5-pyrrolidin-1-yl-2H-[1,2,4]triazol-3-yl)-vinyl]-[1,2,4]triazolo[1,5-a]pyrazine]
33 nM	Clc1ccc2ncc(CCc3n[nH]c(N4CCCC4)n3)nc2c1 [Example 134, 7-chloro-2-(2-(5-(pyrrolidin-1-yl)-1H-1,2,4-triazol-3-yl)ethyl)quinoxaline]
179 nM	Cc1ncc(C)n2nc(/C=C/c3nc(N4CCCCCC4)nn3C)nc12 [Example 102, 2-[(E)-2-(5-Azepan-1-yl-2-methyl-2H-[1,2,4]triazol-3-yl)-vinyl]-5,8-dimethyl-[1,2,4]triazolo[1,5-a]pyrazine]
2.71 nM	Cc1c(Cl)cc(C(F)(F)F)c2nc(CCc3nc(N4CC[C@@H](F)C4)nn3C)nn12 [Example 127, (R)-6-Chloro-2-(2-(3-(3-fluoropyrrolidin-1-yl)-1-methyl-1H-1,2,4-triazol-5-yl)ethyl)-5-methyl-8-(trifluoromethyl)-[1,2,4]triazolo[1,5-a]pyridine]
13.6 nM	Cc1nc(C)n2nc(CCc3nc(N4CCCC4)nn3C)nc2c1C [Example 42, 5,7,8-Trimethyl-2-(2-(1-methyl-3-(pyrrolidin-1-yl)-1H-1,2,4-triazol-5-yl)ethyl)-[1,2,4]triazolo[1,5-c]pyrimidine]
1.58 nM	Cc1c(Cl)cc(C(F)(F)F)c2nc(CCc3nc(N4CCCC4)n(C4CC4)n3)nn12 [Example 131, 6-Chloro-2-(2-(1-cyclopropyl-5-(pyrrolidin-1-yl)-1H-1,2,4-triazol-3-yl)ethyl)-5-methyl-8-(trifluoromethyl)-[1,2,4]triazolo[1,5-a]pyridine]
